Measurements published in patent US6818203B2, “Use of perfluoroalkyl-containing metal complexes as contrast media in MR-imaging for visualization of plaque, tumors and necroses” (Schering Aktiengesellschaft, priority 2000, dated 2004).

Columns and labels:
[1] = organ distribution (including tumor and lymph node concentration) after intravenous administration in prostate cancer-bearing rats; format: in vivo; conditions: 200 μmol Gd/kg i.v.
Experimental: After intravenous administration of 200 μmol of total gadolinium/kg of body weight of a polar Gd-chelate with perfluorinated side chains (metal complex XIV) in rats (Cop-inbreeding with Dunning R3327 MAT-Lu prostate cancer i.m.-implanted 12 days earlier), the metal content in various organs, in tumors, as well as in the lymph nodes (pooled as mesenteric and peripheral lymph nodes) was determined 10 minutes, 1 hour and 24 hours after administration (MW±SD, n=3).

[2] = system: iliac and inguinal lymph nodes; assay: lymph node visualization (MRT) after intravenous administration in guinea pigs with stimulated lymph nodes; format: in vivo; conditions: 200 μmol of Gd/kg i.v.
Experimental: By way of example, the pictures in FIG. 14 show MR images of iliac and inguinal lymph nodes precontrast and up to 24 hours after intravenous administration of 200 μmol of Gd/kg of body weight of metal complex XIV in guinea pigs with stimulated lymph nodes (Freund adjuvant). […] The enhancement was 127% at the time of 60 minutes p.i.

[3] = Mesentric lymph nodes, 10 min p.i.
[4] = Mesentric lymph nodes, 1 h p.i.
[5] = Mesentric lymph nodes, 24 h p.i.
[6] = Peripheral lymph nodes, 10 min p.i.
[7] = Peripheral lymph nodes, 1 h p.i.
[8] = Peripheral lymph nodes, 24 h p.i.
[9] = The remainder of the body, 10 min p.i.
[10] = The remainder of the body, 1 h p.i.
[11] = The remainder of the body, 24 h p.i.

## CC(C(=O)NCC(=O)NCC(=O)N1CCN(C(=O)CNC(=O)CNC(=O)C(C)N2CCN(CC(=O)[O-])CCN(CC(=O)[O-])CCN(CC(=O)[O-])CC2)CCN(C(=O)COCCC(F)(F)C(F)(F)C(F)(F)C(F)(F)C(F)(F)C(F)(F)C(F)(F)C(F)(F)F)CCN(C(=O)CNC(=O)CNC(=O)C(C)N2CCN(CC(=O)[O-])CCN(CC(=O)[O-])CCN(CC(=O)[O-])CC2)CC1)N1CCN(CC(=O)[O-])CCN(CC(=O)[O-])CCN(CC(=O)[O-])CC1.[Gd+3].[Gd+3].[Gd+3] (stereo not shown) [metal complex XIV, 1,4,7-Tris{1,4,7-tris(N-(carboxylatomethyl)-10-[N-1-methyl-3,6-diaza-2,5,8-trioxooctane-1,8-diyl]-1,4,7,10-tetraazacyclododecane, Gdcomplex}-10-N-2H,2H,4H,4H,5H,5H-3-oxa-perfluoro-tridecanoyl]-1,4,7,10-tetraazacyclo-dodecane, Gd complex]
[1]; Balance (without blood values), 24 h p.i.
  % Dose: 95.07 ± 2.41 % Dose
[1]; Blood (58 ml of blood/kg of body weight), 10 min p.i.
  % Dose: 26.73 ± 0.84 % Dose
[1]; Blood (58 ml of blood/kg of body weight), 1 h p.i.
  % Dose: 16.13 ± 1.77 % Dose
[1]; Blood (58 ml of blood/kg of body weight), 24 h p.i.
  % Dose: 0.61 ± 0.03 % Dose
[1]; Blood, 10 min p.i.
  Gd concentration: 957 ± 38 µmol/L
[1]; Blood, 1 h p.i.
  Gd concentration: 575 ± 56 µmol/L
[1]; Blood, 24 h p.i.
  Gd concentration: 22 ± 1 µmol/L
[1]; Brain, 10 min p.i.
  % Dose: 0.10 ± 0.03 % Dose
  Gd concentration: 38 ± 6 µmol/L
[1]; Brain, 1 h p.i.
  % Dose: 0.06 ± 0.00 % Dose
  Gd concentration: 22 ± 2 µmol/L
[1]; Brain, 24 h p.i.
  % Dose: 0.01 ± 0.01 % Dose
  Gd concentration: 4 ± 4 µmol/L
[1]; Feces 0-24 h
  % Dose: 6.00 ± 4.91 % Dose
  Gd concentration: 781 ± 611 µmol/L
[1]; Femur, 10 min p.i.
  % Dose: 0.39 ± 0.02 % Dose
  Gd concentration: 115 ± 3 µmol/L
[1]; Femur, 1 h p.i.
  % Dose: 0.28 ± 0.03 % Dose
  Gd concentration: 81 ± 10 µmol/L
[1]; Femur, 24 h p.i.
  % Dose: 0.03 ± 0.00 % Dose
  Gd concentration: 9 ± 1 µmol/L
[1]; Heart, 10 min p.i.
  % Dose: 0.32 ± 0.01 % Dose
  Gd concentration: 320 ± 8 µmol/L
[1]; Heart, 1 h p.i.
  % Dose: 0.19 ± 0.01 % Dose
  Gd concentration: 190 ± 15 µmol/L
[1]; Heart, 24 h p.i.
  % Dose: 0.02 ± 0.00 % Dose
  Gd concentration: 19 ± 0 µmol/L
[1]; Intestine (empty), 10 min p.i.
  % Dose: 1.55 ± 0.09 % Dose
  Gd concentration: 242 ± 15 µmol/L
[1]; Intestine (empty), 1 h p.i.
  % Dose: 1.16 ± 0.22 % Dose
  Gd concentration: 201 ± 32 µmol/L
[1]; Intestine (empty), 24 h p.i.
  % Dose: 0.26 ± 0.04 % Dose
  Gd concentration: 36 ± 5 µmol/L
[1]; Kidney, 10 min p.i.
  % Dose: 1.76 ± 0.14 % Dose
  Gd concentration: 761 ± 60 µmol/L
[1]; Kidney, 1 h p.i.
  % Dose: 2.84 ± 0.61 % Dose
  Gd concentration: 1181 ± 232 µmol/L
[1]; Kidney, 24 h p.i.
  % Dose: 0.81 ± 0.09 % Dose
  Gd concentration: 338 ± 49 µmol/L
[1]; Liver, 10 min p.i.
  % Dose: 2.62 ± 0.11 % Dose
  Gd concentration: 192 ± 12 µmol/L
[1]; Liver, 1 h p.i.
  % Dose: 2.04 ± 0.15 % Dose
  Gd concentration: 147 ± 7 µmol/L
[1]; Liver, 24 h p.i.
  % Dose: 0.96 ± 0.05 % Dose
  Gd concentration: 64 ± 4 µmol/L
[1]; Lung, 10 min p.i.
  % Dose: 1.04 ± 0.02 % Dose
  Gd concentration: 603 ± 30 µmol/L
[1]; Lung, 1 h p.i.
  % Dose: 0.80 ± 0.06 % Dose
  Gd concentration: 415 ± 39 µmol/L
[1]; Lung, 24 h p.i.
  % Dose: 0.09 ± 0.01 % Dose
  Gd concentration: 44 ± 4 µmol/L
[1]; [3]
  % Dose: 0.08 ± 0.01 % Dose
  Gd concentration: 291 ± 29 µmol/L
[1]; [4]
  % Dose: 0.05 ± 0.01 % Dose
  Gd concentration: 179 ± 16 µmol/L
[1]; [5]
  % Dose: 0.02 ± 0.00 % Dose
  Gd concentration: 50 ± 6 µmol/L
[1]; Muscle, 10 min p.i.
  % Dose: 0.06 ± 0.02 % Dose
  Gd concentration: 93 ± 5 µmol/L
[1]; Muscle, 1 h p.i.
  % Dose: 0.04 ± 0.00 % Dose
  Gd concentration: 56 ± 3 µmol/L
[1]; Muscle, 24 h p.i.
  % Dose: 0.00 ± 0.00 % Dose
  Gd concentration: 8 ± 1 µmol/L
[1]; Pancreas, 10 min p.i.
  % Dose: 0.35 ± 0.02 % Dose
  Gd concentration: 191 ± 14 µmol/L
[1]; Pancreas, 1 h p.i.
  % Dose: 0.21 ± 0.05 % Dose
  Gd concentration: 139 ± 26 µmol/L
[1]; Pancreas, 24 h p.i.
  % Dose: 0.03 ± 0.01 % Dose
  Gd concentration: 25 ± 1 µmol/L
[1]; [6]
  % Dose: 0.13 ± 0.00 % Dose
  Gd concentration: 284 ± 19 µmol/L
[1]; [7]
  % Dose: 0.14 ± 0.02 % Dose
  Gd concentration: 254 ± 14 µmol/L
[1]; [8]
  % Dose: 0.02 ± 0.00 % Dose
  Gd concentration: 51 ± 5 µmol/L
[1]; Spleen, 10 min p.i.
  % Dose: 0.13 ± 0.01 % Dose
  Gd concentration: 200 ± 13 µmol/L
[1]; Spleen, 1 h p.i.
  % Dose: 0.08 ± 0.01 % Dose
  Gd concentration: 123 ± 10 µmol/L
[1]; Spleen, 24 h p.i.
  % Dose: 0.06 ± 0.00 % Dose
  Gd concentration: 69 ± 5 µmol/L
[1]; Stomach (empty), 10 min p.i.
  % Dose: 0.56 ± 0.07 % Dose
  Gd concentration: 244 ± 17 µmol/L
[1]; Stomach (empty), 1 h p.i.
  % Dose: 0.40 ± 0.05 % Dose
  Gd concentration: 165 ± 21 µmol/L
[1]; Stomach (empty), 24 h p.i.
  % Dose: 0.05 ± 0.00 % Dose
  Gd concentration: 19 ± 2 µmol/L
[1]; Sum of the organs, 10 min p.i.
  % Dose: 80.06 ± 2.84 % Dose
[1]; Sum of the organs, 1 h p.i.
  % Dose: 72.94 ± 5.83 % Dose
[1]; Sum of the organs, 24 h p.i.
  % Dose: 9.21 ± 0.27 % Dose
[1]; [9]
  % Dose: 70.71 ± 2.74 % Dose
  Gd concentration: 419 ± 27 µmol/L
[1]; [10]
  % Dose: 64.27 ± 5.50 % Dose
  Gd concentration: 392 ± 25 µmol/L
[1]; [11]
  % Dose: 6.81 ± 0.16 % Dose
  Gd concentration: 42 ± 0 µmol/L
[1]; Tumor, 10 min p.i.
  % Dose: 0.25 ± 0.05 % Dose
  Gd concentration: 246 ± 25 µmol/L
[1]; Tumor, 1 h p.i.
  % Dose: 0.37 ± 0.14 % Dose
  Gd concentration: 266 ± 87 µmol/L
[1]; Tumor, 24 h p.i.
  % Dose: 0.04 ± 0.01 % Dose
  Gd concentration: 56 ± 4 µmol/L
[1]; Urine 0-24 h
  % Dose: 79.86 ± 3.13 % Dose
  Gd concentration: 619 ± 19 µmol/L
[2]; 60 minutes p.i.
  enhancement in lymph node tissue: 127%
[2]; very shortly after injection
  signal in healthy lymph node tissue (T1-weighted gradient-echo images): strong signal rise
